The values below are quoted from earlier work in patent US20240423898A1, “LONGEVITY EYE CREAM” (Wellbeam Consumer Health Intermediate, LLC, priority 2023, published 2024).

One data set deals with skin. The following applies: topical application.
For a further data set, the system named is under-eye dark circles. The following applies: in vivo.

The structures appear in SMILES notation.

As for `C=C[C@@](C)(/C=C/c1ccc(O)cc1)CCC=C(C)C` [bakuchiol], in the data set with skin, the “improvement in lines and wrinkles, pigmentation, elasticity, firmness, and overall reduction in photo-damage” value is on record as “significant improvement”; the “irritating effect on the skin” value is “no irritating effect on the skin”.

As to `Cn1c(=O)c2c(ncn2C)n(C)c1=O` [caffeine], the under-eye dark circles result with under-eye dark circles is “can reduce under-eye dark circles”.
